Measured values published in US20250282753A1, “COMPOUNDS USEFUL FOR REDUCING URIC ACID” (ATOM BIOSCIENCE AMERICA CORPORATION, priority 2022, published 2025).

Key:
[1] = test system: potassium oxonate-induced hyperuricemic rats; assay: Serum uric acid in potassium oxonate-induced hyperuricemic rats, single gavage (Example 34); format: in vivo, SD rats; settings: for Uric acid 0 h / Uric acid 1 h / Uric acid 3 h / Uric acid 5 h: serum, mean ± SD; for Uric acid 0 h: before potassium oxonate injection; for Uric acid 1 h: 1 h after potassium oxonate injection; for Uric acid 3 h: 3 h after potassium oxonate injection; for Uric acid 5 h: 5 h after potassium oxonate injection
Procedure: 36 male SD rats weighed approximately 200-230 g after one week of adaptation. […] The drugs in each group were prepared into a corresponding concentration suspension, and the administration volume was 0.5 mL/100 g.
After the rats in each group were purchased and adapted to feeding, they were fasted for 12 h, and intraperitoneally injected with potassium oxonate at a dose of 300 mg/kg to establish the model. After 0.5 h of model establishment, each test drug group was gavaged once. Blood was collected from the retro-orbital venous plexus before and 1, 3, and 5 h after potassium oxonate injection. The samples were centrifuged at 3500 rpm for 10 min. 30 μL of serum was collected to determine the uric acid level at each time point.
The measurement data of each test were expressed as (mean)+standard deviation). The comparison between groups used ANOVA-Dunnett T test to examine the significance. P<0.05 was used as the significance index, and P<0.01 was used as the extremely significant index.

[2] = test system: potassium oxonate-induced hyperuricemic rats; assay: Serum uric acid in potassium oxonate-induced hyperuricemic rats, 3 days of gavage (Example 35); format: in vivo, SD rats
Procedure: Compound 13 was a light yellow powder, and compounds 38 and 41 are pseudo-white powders, which are triturated with 0.5% CMC-Na just prior to use to prepare a 0.4 mg/mL suspension for gavage.
36 male SD rats weighed approximately 220-240 g after one week of adaptation. […] The drugs in each group were prepared into a corresponding concentration suspension, and the administration volume was 0.5 mL/100 g.
After the rats in each group were purchased and adapted to feeding, they were fasted for 12 h, and, intraperitoneally, injected with⋅ potassium⋅ gxonate at a⋅dose of 300 mg/kg to establish the model. 0.5 h after modeling, each test drug group was gavaged once. The drug was administered continuously for 3 days. On day 3, blood samples was collected from the retro-orbital venous plexus before and 1, 3, and 5 h after potassium oxonate injection. The samples were centrifuged at 3500 rpm for 10 min, and 30 μL of serum was collected to determine the uric acid level at each time point.
The measurement data of each test were expressed as (mean)±standard deviation). The comparison between groups used ANOVA-Dunnett T test to examine the significance. P<0.05 was used as the significance index, and P<0.01 was used as the extremely significant index.

[3] = cited from earlier work; for Sudden cardiac death, number of cases / Sudden cardiac death, share of group: per treatment group
[4] = allopurinol used at the maximum dose; cited from earlier work
[5] = cited from earlier work
[6] = Febuxostat group vs allopurinol group

Question: For `Cc1oc(=O)oc1COC(=O)c1ccnc(-c2ccc3c(c2)c(C#N)nn3C(C)C)c1` [Compound 22, (5-methyl-2-oxo-1,3-dioxol-4-yl)methyl 2-(3-cyano-1-isopropyl-1H-indazol-5-yl) isonicotinate], which “serum uric acid level compared with the model group at the same time point” value ([1]; 1.45 mg/kg group, 1 h after modeling, P<0.05) is on record?
Answer: significantly reduce

Question: And the “serum uric acid level compared with the model group at the same time point” value ([1]; 2.9 mg/kg group, 1 and 5 h after modeling, P<0.05)?
Answer: significantly reduce

Question: And the “Uric acid 0 h” value ([1]; 1.45 mg/kg gavage once)?
Answer: 64.0 ± 13.1 µmol/L

Question: And the “Uric acid 1 h” value ([1]; 1.45 mg/kg gavage once)?
Answer: 88.1 ± 17.8 µmol/L

Question: What about the “Uric acid 3 h” value ([1]; 1.45 mg/kg gavage once) of the same compound?
Answer: 86.5 ± 11.5 µmol/L

Question: And the “Uric acid 5 h” value ([1]; 1.45 mg/kg gavage once)?
Answer: 78.1 ± 11.1 µmol/L

Question: What about the “Uric acid 0 h” value ([1]; 2.90 mg/kg gavage once) of the same compound?
Answer: 66.4 ± 7.0 µmol/L

Question: And the “Uric acid 1 h” value ([1]; 2.90 mg/kg gavage once)?
Answer: 88.3 ± 11.9 µmol/L

Question: And the “Uric acid 3 h” value ([1]; 2.90 mg/kg gavage once)?
Answer: 77.1 ± 13.2 µmol/L

Question: And the “Uric acid 5 h” value ([1]; 2.90 mg/kg gavage once)?
Answer: 70.9 ± 6.3 µmol/L

Question: For `Cc1nc(-c2ccc(OCC(C)C)c(C#N)c2)sc1C(=O)O` [Febuxostat, reference compound], which “serum uric acid level compared with the model group at the same time point” value ([1]; 1 mg/kg and 2 mg/kg, 1, 3, and 5 h after modeling, P<0.01) is on record?
Answer: significantly reduce

Question: And the “Uric acid 1 h” value ([1]; 1 mg/kg gavage once)?
Answer: 78.0 ± 17.5 µmol/L

Question: And the “Uric acid 3 h” value ([1]; 1 mg/kg gavage once)?
Answer: 63.3 ± 13.8 µmol/L

Question: What about the “Uric acid 5 h” value ([1]; 1 mg/kg gavage once) of the same compound?
Answer: 59.0 ± 9.8 µmol/L

Question: And the “Uric acid 1 h” value ([1]; 2 mg/kg gavage once)?
Answer: 40.6 ± 10.6 µmol/L

Question: What about the “Uric acid 3 h” value ([1]; 2 mg/kg gavage once) of the same compound?
Answer: 50.1 ± 10.7 µmol/L

Question: And the “Uric acid 5 h” value ([1]; 2 mg/kg gavage once)?
Answer: 61.4 ± 7.1 µmol/L

Question: And the “serum uric acid level compared with the model group at the same time point” value ([2]; 2 mg/kg for 3 days, 1, 3, and 5 h after modeling, P<0.01)?
Answer: significantly reduce

Question: What about the “Uric acid 0 h” value ([2]; serum, 2 mg/kg gavage for 3 days, day 3, 0 h, before potassium oxonate injection, mean ± SD, n=6) of the same compound?
Answer: 39.2 ± 6.2 µmol/L

Question: And the “Uric acid 1 h” value ([2]; serum, 2 mg/kg gavage for 3 days, day 3, 1 h after potassium oxonate injection, mean ± SD)?
Answer: 34.4 ± 7.1 µmol/L

Question: What about the “Uric acid 3 h” value ([2]; serum, 2 mg/kg gavage for 3 days, day 3, 3 h after potassium oxonate injection, mean ± SD) of the same compound?
Answer: 31.2 ± 7.6 µmol/L

Question: And the “Uric acid 5 h” value ([2]; serum, 2 mg/kg gavage for 3 days, day 3, 5 h after potassium oxonate injection, mean ± SD)?
Answer: 24.7 ± 4.7 µmol/L

Question: And the “increase in all-cause mortality” value [3, 6]?
Answer: 22%

Question: What about the “increase in cardiovascular mortality” value [3, 6] of the same compound?
Answer: 34%

Question: What about the “all-cause mortality, HR” value ([3]; Febuxostat vs allopurinol group, 95% CI 1.01-1.47) of the same compound?
Answer: 1.22

Question: What about the “cardiovascular mortality, HR” value ([3]; Febuxostat vs allopurinol group, 95% CI 1.03-1.73) of the same compound?
Answer: 1.34

Question: What about the “overall risk of adverse cardiovascular events, HR” value ([3]; Febuxostat vs allopurinol group, average of 32 months of treatment, 95% CI 0.87-1.23) of the same compound?
Answer: 1.03

Question: And the “Sudden cardiac death, number of cases” value [3]?
Answer: 83 cases

Question: What about the “Sudden cardiac death, share of group” value [3] of the same compound?
Answer: 2.7%

Question: With `Oc1ncnc2[nH]ncc12` [allopurinol] as the compound, how does the “rate of subjects reaching the treatment endpoint” value [4] read?
Answer: less than 50%

Question: What about the “Sudden cardiac death, number of cases” value [3] of the same compound?
Answer: 56 cases

Question: What about the “Sudden cardiac death, share of group” value [3] of the same compound?
Answer: 1.8%

Question: Which “patients experiencing severe immune allergic side effects” value ([5]; human, in vivo, iv) does the source give for Pegloticase here?
Answer: 20-40%

Question: And the “patients reaching the treatment endpoint of below 0.36 mmol/L” value ([5]; intravenous injection)?
Answer: 47%
